Measured values as given in publication PMC11988671, “SIRT7 Is a Lysine Deacylase with a Preference for Depropionylation and Demyristoylation” (International Journal of Molecular Sciences, 2025).
Several values for one entry are separate records, joined by “and”; a condition that tells them apart may be missing. Equal entries are not always repeated.

Legend:
[1] = target: T1, SIRT7 (Mus musculus, UniProt Q8BKJ9); experiment: In vitro deacylation assay of acyl-modified H3K18 peptides by SIRT7 (LC-MS/MS); format: biochemical; parameters: HaloTag (N, cleaved yes); made in house; host or cells: E. coli K12 KRX; settings: 8 μM peptide (glutaryl 100 µM), 1.0 mM NAD^+, RNA, 24 h, 37 °C
T1 sequence (Q8BKJ9 1-402): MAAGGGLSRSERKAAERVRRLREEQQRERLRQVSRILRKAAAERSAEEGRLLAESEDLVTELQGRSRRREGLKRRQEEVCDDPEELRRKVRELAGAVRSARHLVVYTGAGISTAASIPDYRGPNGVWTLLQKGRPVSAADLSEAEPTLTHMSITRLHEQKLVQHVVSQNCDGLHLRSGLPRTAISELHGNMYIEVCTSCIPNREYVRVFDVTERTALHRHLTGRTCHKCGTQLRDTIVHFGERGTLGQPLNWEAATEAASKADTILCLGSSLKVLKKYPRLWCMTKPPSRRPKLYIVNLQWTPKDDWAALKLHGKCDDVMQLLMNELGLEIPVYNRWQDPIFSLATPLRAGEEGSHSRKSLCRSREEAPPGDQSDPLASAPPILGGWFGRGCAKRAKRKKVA
Description: (§1) In the case of the SIRT1 enzymatic reaction, 8 µM peptide was incubated in 50 µL reaction buffer containing 10 mM NaCl, 10 mM KCl, 20 mM Tris-HCl pH 8.0, 1.0 mM NAD^+, and 1 mM DTT, with or without 1 µg recombinant SIRT1. The reaction mixtures were incubated for 24 h for SIRT7 or 2 h for SIRT1 at 37 °C.
(§2) The general conditions for electrospray ionization-MS were as follows: nebulizer gas, N2, delivered at 50 psi; nebulizer gas temperature, 250 °C; capillary voltage, 3500 V; and collision gas, G1 grade N2 (Taiyo Nippon Sanso Corporation, Tokyo, Japan).

[2] = target: T2, SIRT1 (Mus musculus, UniProt Q923E4); experiment: In vitro deacetylation assay of H3K9Ac peptide by SIRT1 (LC-MS/MS); format: biochemical; settings: 8 µM peptide, 1.0 mM NAD^+, 2 h, 37 °C
T2 construct: HaloTag (N, cleaved yes); made in house; host or cells: E. coli K12 KRX
T2 sequence (Q923E4 1-737): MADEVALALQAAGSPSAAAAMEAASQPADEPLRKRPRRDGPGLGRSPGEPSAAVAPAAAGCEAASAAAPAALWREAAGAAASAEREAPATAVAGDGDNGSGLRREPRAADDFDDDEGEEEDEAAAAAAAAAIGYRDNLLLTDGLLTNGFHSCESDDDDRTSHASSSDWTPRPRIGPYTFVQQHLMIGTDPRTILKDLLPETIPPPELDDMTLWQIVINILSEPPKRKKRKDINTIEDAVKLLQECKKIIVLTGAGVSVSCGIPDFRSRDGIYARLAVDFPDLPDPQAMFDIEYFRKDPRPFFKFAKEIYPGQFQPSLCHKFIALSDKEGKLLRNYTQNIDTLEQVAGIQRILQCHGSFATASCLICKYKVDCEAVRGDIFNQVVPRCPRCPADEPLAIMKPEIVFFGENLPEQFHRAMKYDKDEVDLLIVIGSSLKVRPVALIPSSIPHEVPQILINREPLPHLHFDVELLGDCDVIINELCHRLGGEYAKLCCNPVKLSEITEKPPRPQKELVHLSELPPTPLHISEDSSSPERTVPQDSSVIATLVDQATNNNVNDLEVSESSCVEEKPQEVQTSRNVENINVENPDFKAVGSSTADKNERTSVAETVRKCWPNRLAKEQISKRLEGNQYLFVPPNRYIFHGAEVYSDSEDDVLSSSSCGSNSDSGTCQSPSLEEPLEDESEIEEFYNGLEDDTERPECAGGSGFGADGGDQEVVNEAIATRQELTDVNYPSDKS
Description: as §1, §2

[3] = target: T1, SIRT7; experiment: NAM inhibition assay (in vitro deacylation, LC-MS/MS); settings: for IC50: IC50, NAM (relative IC50), wild-type SIRT7
[4] = test system: SIRT7-dependent DDB1 deacetylation in HEK293T cells; experiment: SIRT7-dependent DDB1 deacetylation (IP and Western blot); format: cell-based; settings: FK866 500 pM
Description: (§3) HEK293T cells were treated with FK866 or DMSO for 24 h and transfected with the indicated plasmids using JetPRIME reagents (Polypus, Illkirch-Graffenstaden, France) for an additional 24 h. The cells were lysed in IP buffer (20 mM Tris-HCl pH 7.4, 200 mM NaCl, 2.5 mM MgCl2, 0.05% NP-40, 1 mM PMSF, and protease inhibitor cocktail (Nacalai Tesque)) supplemented with 5 mM NAM and 2.5 µM trichostatin A. The lysate was incubated on ice for 20 min and subsequently sonicated twice at 4 °C with a 20 s interval at 26% amplitude using a Sonifier SFX-150 (Branson Ultrasonics) to disrupt the cells. Following sonication, the lysate was centrifuged at 14,000× g for 15 min at 4 °C to separate cellular debris. For immunoprecipitation, 2 mg protein from each sample was incubated with anti-HA- or anti-DYKDDDDK (FLAG)-tagged beads (Fujifilm Wako Pure Chemical Corp.) for 18 h at 4 °C with gentle rotation. After washing with IP buffer, the proteins were eluted in SDS sample buffer, and lysine acetylation was detected by Western blot with an anti-acetylated lysine antibody.
(§4) For Western blot, proteins were separated by SDS-PAGE and transferred to an Immobilon-P PVDF membrane (Merck Millipore, Burlington, MA, USA), which was probed with primary and secondary antibodies. […]

[5] = test system: Cd36 and Cidec expression in Hepa1–6 cells; experiment: Cellular gene expression (real-time quantitative PCR); format: cell-based; settings: FK866 8 nM, 48 h
Description: Hepa1–6 cells were exposed to 8 nM FK866 for 48 h, and the cells were incubated without fetal bovine serum for the final 24 h of treatment. Subsequently, total RNA was extracted from the cells utilizing the Sepasol RNA I Super Reagent (Nacalai Tesque). Quantitative reverse transcription (RT)-PCR was conducted using a PrimeScript RT Reagent Kit (RR047A; TaKaRa Bio, Inc., Kusatsu, Japan) followed by TB Green Premix Ex TaqII (RR820A; TaKaRa Bio, Inc.) and an ABI ViiA 7 Real-Time PCR System (Applied Biosystems, Inc., Foster City, CA, USA). The relative expression level of each gene was normalized to that of TATA box-binding protein (Tbp). The following primer sequences were used: Cd36, forward 5′-TTGGCCAAGCTATTGCGACA-3′ and reverse 5′-CTGGAGGGGTGATGCAAAGG-3′; Cidec, forward 5′-GCTGAAGGGGCAGAAGTGGA-3′ and reverse 5′-GCGCTTGGCCTTGTAGCAGT-3′; and Tbp, forward 5′-CCCCTTGTACCCTTCACCAAT-3′ and reverse 5′-GAAGCTGCGGTACAATTCCAG-3′.

[6] = test system: SIRT1-dependent PPARα deacetylation in HEK293T cells; experiment: SIRT1-dependent PPARα deacetylation (IP and Western blot); format: cell-based; settings: FK866 500 pM
Description: as §3, §4

[7] = test system: HEK293T cells; experiment: NAD^+ assay in cells treated with FK866; format: cell-based
Description: HEK293T and Hepa1–6 cells were treated with the NAMPT inhibitor FK866 (500 pM and 8 nM, respectively), and NAD^+ and total NAD^+/NADH cellular levels were determined using an NAD^+/NADH Assay Kit-WST (#N509; Dojindo Laboratories, Kumamoto, Japan). Total NAD^+/NADH and NADH concentrations in one sample were calculated from the calibration curve, then the NAD^+ level was determined by subtracting the NADH value from the total NAD^+/NADH level.

[8] = test system: SIRT4; parameters: method as in PMID 23746352; settings: read-out: Km of SIRT4 for NAD^+; cited from earlier work
[9] = test system: SIRT7-DNA and SIRT7-RNA; parameters: method as in PMID 35939806; settings: compared with own H3K18Ac value in presence of RNA; read-out: Km, NAD^+ for SIRT7, previously reported value; cited from earlier work
[10] = test system: SIRT5; parameters: method as in PMID 23028781; settings: read-out: Km of SIRT5 for NAD^+; cited from earlier work
[11] = test system: SIRT1; settings: compared with own H3K9Ac value; read-out: Km, NAD^+ for SIRT1, value reported previously; cited from earlier work
[12] = succinyl H3K18 peptide substrate

In the case of “NH2-KSTGGKAPRK^OctanoylQLATKAARKS-COOH [octanoyl H3K18 peptide]”, the “Hydrolysis of acyl H3K18 peptide by SIRT7” value (“Hydrolysis” for short) [1] is reported as “catalyzed the hydrolysis”.
With “NH2-ARTKQTARK^AcetylSTGGKAPRKQLC-COOH [H3K9Ac]” the “Loss of H3K9Ac peptide and formation of deacetylated H3K9 peptide with recombinant SIRT1” value [2] was “detected”.
With “NH2-KSTGGKAPRK^SuccinylQLATKAARKS-COOH [succinyl H3K18 peptide]” the “Hydrolysis” value [1] was “catalyzed the hydrolysis”.
With “NH2-KSTGGKAPRK^GlutarylQLATKAARKS-COOH [glutaryl peptide]” the “Hydrolysis” value [1] was “not detected”.
In the case of “NH2-KSTGGKAPRK^MyristoylQLATKAARKS-COOH [myristoyl H3K18 peptide]”, the “Hydrolysis” value [1] is reported as “catalyzed the hydrolysis”.
With NC(=O)c1cccnc1 [NAM, Nicotinamide] the IC50 ([3]; acetyl H3K18 peptide substrate) was 23 µM and 23.2 µM, the IC50 ([3]; butyryl H3K18 peptide substrate) was 613 ± 63.8 µM and the IC50 ([3]; myristoyl H3K18 peptide substrate) was 286 ± 25.1 µM. The IC50 ([3]; octanoyl H3K18 peptide substrate) was 1110 ± 216 µM, the IC50 ([3]; palmitoyl H3K18 peptide substrate) was 544 ± 83.7 µM and the IC50 ([3]; propionyl H3K18 peptide substrate) was 787 ± 118 µM. For the same compound, the IC50 [3, 12] was 1230 ± 268 µM and the “NAM inhibition of the desuccinylation reaction” value [3, 12] was “did not completely inhibit”.
With O=C(/C=C/c1cccnc1)NCCCCC1CCN(C(=O)c2ccccc2)CC1 [FK866] the “SIRT7-mediated DDB1 deacetylation” value [4] was “abolished”, the Cd36 expression [5] was “significantly decreased” and the Cidec expression [5] was “significantly decreased”. For the same compound, the “Deacetylation of PPARα by SIRT1” value [6] was “not abolished” and the “Cellular NAD^+ levels” value [7] was “decreased”.
For NC(=O)c1ccc[n+]([C@@H]2O[C@H](COP(=O)([O-])OP(=O)(O)OC[C@H]3O[C@@H](n4cnc5c(N)ncnc54)[C@H](O)[C@@H]3O)[C@@H](O)[C@H]2O)c1 [NAD^+, Nicotinamide adenine dinucleotide], the Km [8] is listed as 35 µM, the Km [9] is listed as 480 µM and the Km [10] is listed as 980 µM. For the same compound, the Km [11] was 29 µM.
For “NH2-KSTGGKAPRK^ButyrylQLATKAARKS-COOH [butyryl H3K18 peptide]”, the “Hydrolysis” value [1] was “catalyzed the hydrolysis”.
